# From patent publication US7276531B2, “G-lactam derivatives as prostaglandin agonists” (Applied Research Systems ARS Holding N.V., priority 2003, dated 2007)
# Tested on: mature mouse ovulation induction model
# Assay: In vivo ovulation assay (mature mouse ovulation induction model)
# Method: Ovulation induction activity of compounds of the invention was tested in a mature mouse ovulation induction model.
# Mature 10-week-old CD-mice were used. Reagents were prepared as follows: PMSG (pregnant mare serum gonadotropin) (Calbiochem, cat #367222) and hCG (Serono) are diluted in PBS. PGE2 (Cayman, Ann Arbor Mich.) was dissolved in ethanol and diluted with 0.154 M […] Buffer (pH 8.0) to final concentration of ethanol of less than 3 percent. A compound of the invention (based on solubility) was pre-dissolved in ethanol, DMSO or other reagents. The compound of the invention was then diluted with saline or other diluents such as PBS or NP3S (5% N-methyl-pyrrolidinone/30% PEG400/25% PEG200/20% Propylene Glycol in saline). PMSG stimulates ovarian follicular development. After PMSG stimulation, the mature follicules can be stimulated to rupture and release oocytes by an ovulation trigger, such as hCG or a compound of the invention.
# The following test protocol is employed for the test animals (typically 5 animals per test group). • Day 1: Inject 5 IU PMSG in 200 μl PBS (i.p. 15:00 PM) • Day 2: No administration • Day 3: Injection of ovulation trigger hCG (i.p.) or hCG replacement (PGE2 or compound of the invention, s.c., i.v. or oral route), 15:00 PM • Day 4: Eighteen hours after injections of the ovulation triggers, animals were sacrificed by CO2 asphyxiation and abdominal cavities were opened using fine scissors and forceps. Uterus, oviducts and ovaries were collected and placed in pre-labeled dishes containing phosphate buffered saline (PBS). The collected tissues were transferred to the laboratory and intact oviduct carefully dissected out from uterus and ovary under the dissection microscope. The dissected oviducts were placed on the glass microscopic slide and covered with another slide. Two slides were taped on two edges. The numbers of ovulated ova in the oviducts were counted using upright microscope with 4× objective and recorded. […]
compound,measurement,setting,value
"CCCC/C(C)=C/C=C\[C@H]1CCC(=O)N1CCc1ccc(C(=O)O)cc1 [Example 3, 4-(2-{(2R)-2-[(1Z,3E)-4-methylocta-1,3-dienyl]-5-oxopyrrolidin-1-yl}ethyl)benzoic acid]",ED50,"Mus musculus, po, read-out: calculated ED50 (dose of drug which produces 50% of its effect), ovulation, p.o. administration route, mice",1 mg/kg
same,number of ova released (average),"oral administration, 20 mg/kg, mature mice",20
